Reference: US20170021042A1, “Flow-Through Pathogen Reduction” (Terumo BCT Biotechnologies, LLC, priority 2015, published 2017)
Marks after values point to notes of the source that are not given here.

Experiments:
PhiX174 [1] = experiment: PhiX174 reduction in whole blood with riboflavin, UV-illuminated flow-through flow cells
Source text: This study is designed to obtain insight into the correlation between flow rate, channel thickness and pathogen reduction of whole blood. The flow cells in this study have thin channels and different flow configurations. Thin channels are used because whole blood is less transmissive than plasma.
(§1) The flow cell mounts in a fixture (e.g. a flow cell holder) which maintains channel thickness by applying pressure from both the top and bottom. The fixture houses eight illumination lamps driven at 800 mA with four on top and four on bottom producing an irradiance of 4.5 mW/cm^2. Product can be flowed through the flow-cell, which is mounted adjacent to the light source, and then samples can be taken on the back end.
A peristaltic pump to control flow rate is used with the pump will located after the flow cell so that negative pressure is applied to the flow cell by the pump instead of positive pressure. The pump is calibrated prior to use to ensure flow rate accuracy.
Two flow cell configurations being tested may be referred to as “8p” and “4s×2p”. The 8p configuration has all the channels in parallel; therefore the fluid crosses one channel before exiting the flow cell. The 4s×2p configuration requires the fluid to cross four channels in series before exiting the flow cell. […]

PhiX174 [2] = experiment: PhiX174 reduction in plasma with riboflavin, UV-illuminated flow-through flow cells; conditions: for pathogen reduction (log reduction of PhiX174): plasma + riboflavin, irradiance 4.5 mW/cm2
Source text: The goal of this study is to obtain insight into the correlation between flow rate, channel thickness and pathogen reduction. The flow cells in this study have a relatively thicker channel and different flow configurations.
as §1, with “fixture (e.g.,” for “fixture (e.g. a”, “4.5 mW/cm2.” for “4.5 mW/cm^2.”, “samples are” for “samples can be”
The increased channel thickness results in decreased fluidic impedance requiring the use of a peristaltic pump to control flow rate instead of by gravity. The pump is calibrated prior to use to ensure flow rate accuracy.
1.5.5. Submit one sample tube for each sample for viral titer and save the other two samples for later analysis.
Below are the pathogen reduction results. In Table 6, cells with bold text indicate a sample that is within the limit of detection and cells with an asterisk indicate a sample that has six or less PhiX174 colonies at a one log dilution and is outside the limit of detection. Cells with underlined text indicate a sample is technically outside the limit of detection but has PhiX174 colonies allowing for the inferred calculation of pathogen reduction. Each cell also has dwell time in seconds and predicted dose. The lower predicted dose value takes into account the transmissivity of the plasma and flow cell. The higher predicted dose assumes that all light incident on the flow cell is absorbed by the plasma.

Cc1cc2nc3c(=O)[nH]c(=O)nc-3n(C[C@H](O)[C@H](O)[C@H](O)CO)c2cc1C [riboflavin]
pathogen reduction, in words (PhiX174 [1]): within the acceptable pathogen reduction range | hemolysis, difference from hold control (whole blood): ≤ 0.06 % hemolysis | pathogen reduction (log reduction of PhiX174) (PhiX174 [2]; flow cell A, gap 3/1000" (0.0762 mm), flow rate 20 ml/min, dwell 2.9 sec): (~3.4 logs)* | pathogen reduction (log reduction of PhiX174) (PhiX174 [2]; flow cell A, gap 3/1000" (0.0762 mm), flow rate 40 ml/min, dwell 1.5 sec): (2.8 logs)* | pathogen reduction (log reduction of PhiX174) (PhiX174 [2]; flow cell B, gap 5/1000" (0.127 mm), flow rate 20 ml/min, dwell 4.9 sec): (~3.6 logs)* | pathogen reduction (log reduction of PhiX174) (PhiX174 [2]; flow cell B, gap 5/1000" (0.127 mm), flow rate 40 ml/min, dwell 2.43 sec): (2.6 logs)* | pathogen reduction (log reduction of PhiX174) (PhiX174 [2]; flow cell C, gap 12/1000" (0.305 mm), flow rate 40 ml/min, dwell 5.8 sec): (~3.9 logs)* | pathogen reduction (log reduction of PhiX174) (PhiX174 [2]; flow cell C, gap 12/1000" (0.305 mm), flow rate 80 ml/min, dwell 2.9 sec): (2.5 logs)* | pathogen reduction (log reduction of PhiX174) (PhiX174 [2]; flow cell D, gap 20/1000" (0.508 mm), flow rate 80 ml/min, dwell 4.7 sec): (2.9 logs)* | pathogen reduction, in words (PhiX174 [2]; plasma and riboflavin, all flow cells A-D): adequate pathogen reduction
